Data reported in ChEMBL document CHEMBL1127271, “Synthesis of 1,2,4-triazine-(2H,4H)-3,5,-dione anticoccidial agents via palladium-catalyzed cross-coupling reactions” (Bioorg Med Chem Lett, 1994).
Calls of active or inactive are those of the source. The calls are words filed in the database; no cut-off is given here.

What follows are molecules tested on Eimeria tenella (assay: In vivo anti-coccidial activity determined at a dose of <16 p.p.m. (battery efficacy against Eimeria tenella); IA means Inactive).
Assay type: functional, organism-based
“[1-(2,5-Dimethoxy-phenyl)-vinyl]-trimethyl-stannane” was tested, and the Activity was “inactive”. (1-Cyclohexyl-vinyl)-trimethyl-stannane was tested, and the Activity was “inactive”. For C=C(c1c(Cl)cc(-n2ncc(=O)[nH]c2=O)cc1Cl)C1CCCC1, the Activity was “inactive”. With “Trimethyl-(4-methyl-cyclohex-1-enyl)-stannane” the Activity was “inactive”. With “(1-Cyclopentyl-vinyl)-trimethyl-stannane” the Activity was “inactive”. For CC1CC=C(c2c(Cl)cc(-n3ncc(=O)[nH]c3=O)cc2Cl)CC1 (centres undefined), the Activity was “inactive”. For C=C(c1c(Cl)cc(-n2ncc(=O)[nH]c2=O)cc1Cl)C1CCCCC1, the Activity was “inactive”. With O=C(O)c1nn(-c2ccc(I)c(C(F)(F)F)c2)c(=O)[nH]c1=O the Activity was “inactive”. O=c1cnn(-c2ccc(I)c(C(F)(F)F)c2)c(=O)[nH]1 was tested, and the Activity was “inactive”.
